Results on one compound are retold here after patent US20220281930A1, “COMPOSITIONS AND METHODS FOR THE TREATMENT OF PATHOLOGICAL PAIN AND ITCH” (DUKE UNIVERSITY, priority 2019, published 2022).

One test concerns KCC2 mRNA. The experiment in a line: KCC2 mRNA RT-qPCR in microdissected spinal cord dorsal horn. The following applies: KP 10 mg/kg; after PSNL vs vehicle. Format: in vivo, mouse. Here is the method:
oligodT-initiated reverse transcription of 1 μg total RNA, DNA-se treated, was subjected to RT-qPCR using primers specific for KCC2 for rat and KCC2 for human sequences, normalized for neuronal βIII-tubulin, as previously described (Yeo et al., 2009, J Neurosci 29:14652-14662). For cultured neurons, total RNA was extracted from pelleted cells, and for spinal cord tissue it was extracted from microdissected lumbar spinal cord dorsal horn.
With the aforementioned findings and in view of the SCDH as the likely site of analgesic action of KP (Coull et al., 2003, Nature 424:938-942; Gagnon et al., 2013, Nat Med 19:1524-1528), SCDH KCC2 expression and function in nerve injury and response to KP was assessed. […] To measure KCC2 mRNA, SCDH Rexed-layers I-II were microdissected with laser capture followed by RT-qPCR. SCDH KCC2 protein expression was measured morphometrically after KCC2 immunolabeling using SCDH laminae I-II as the region-of-interest (FIG. 5B).
In general terms: In qPCR the cycle at which signal appears reflects the starting amount.

For the next test, the system named is nerve injury pain. The test is described as follows: Nerve constriction injury (PSNL) pain model, mechanical withdrawal. The format is in vivo, mouse. The protocol:
For pain-related behavior, mechanical allodynia was assessed with von Frey filaments (Ugo Basile, Italy). The mice were placed on a 5×5-mm wire-mesh grid floor in individual compartments to avoid visual stimulation and allowed to adapt for 0.5 h prior to the von Frey test. The von Frey filament was then applied to the middle of the plantar surface of the hind paw with 5 g force. The withdrawal responses following the hind paw stimulation were measured at least three times, and the mechanical allodynia, which was defined as an increase in the number of withdrawal responses to the stimulation, was compared.
Thus, in vivo, KP functions as an analgesic when administered systemically in injury-related pain models.
Next, whether the analgesic effects of KP were mediated centrally at the spinal cord level was assessed.
Mechanical withdrawal was measured thresholds after nerve constriction injury (PSNL) (FIG. 12B and FIG. 12C). […] Thus, δ-cat(S276A) spinal transgenesis via AAV9 is sufficient to evoke analgesia after nerve constriction injury, to lesser degree also with δ-cat(WT). Importantly, δ-cat(S276A) spinal transgenesis was accompanied by increased expression of KCC2 in the SCDH. […] Moreover, our discovery points toward a genetically-encoded approach that can be developed for translation into clinical use as an alternative or complement to KP-related small molecules.

The next test concerns ß-catenin (ß-cat). The test is described as follows: Phosphoproteomics in rat primary cortical neurons, ß-cat. The format is cell-based. The following applies: 1 μM KP. Here is the method: Cultured rat primary cortical neurons were treated with either vehicle DMSO (0.1%) or 1 μM KP for 1 h/24 h. Cells were lysed in non-detergent-containing buffer (Tris.Cl pH8 50 mM, NaCl 150 mM, 0.5% Phosphatase Inhibitor (Pierce #88667) and Protease Inhibitor (Roche #11836153001)). 500 μL was removed and solid urea was added to a final concentration of 8M. Samples were sonicated for further solubilization. After clearing of insoluble material by centrifugation, protein concentration was measured by Bradford assay. 250 μg of total protein was removed from each sample and solubilization buffer was added to normalize all samples to 0.93 μg/μL protein. Samples were then spiked with bovine alpha-casein to 30 fmol/μg of total protein. Samples were reduced with 10 mM DTT at 32° C. for 45 min and then alkylated with 20 mM iodoacetamide at room temperature for 30 min. […]
TiO2 Enrichment. […] After cleanup using a C18 STAGE tip, and resuspension in 2% acetonitrile, 0.1% TFA, 10 mM citric acid samples were quantified.
Quantitative analysis of Phosphopeptide Enriched Samples. Quantitative LC-MS/MS was performed in singlicate (4 uL=33% of the total sample each injection) for phosphopeptide-enriched samples using a nanoAcquity UPLC system (Waters Corp) coupled to a Thermo QExactive Plus high resolution accurate mass tandem mass spectrometer (Thermo) via a nanoelectrospray ionization source. […]

With `O=C1Cc2c([nH]c3ccc(Br)cc23)-c2ccccc2N1` [kenpaullone, 9-bromo-7,12-dihydro-indolo [3,2-d] [1]benzazepin-6(5H)-one], in the test with KCC2 mRNA, the “KCC2 mRNA expression in SCDH lamina-I/II” value is reported as “rescues significantly attenuated KCC2 mRNA expression”. In addition, the “analgesic effect on sensitized mechanical withdrawal” value in the test on nerve injury pain (10 mg/kg i.p. daily after nerve constriction injury) is recorded as “less accentuated”; with nerve injury pain (30 mg/kg i.p. daily after nerve constriction injury), “more pronounced”. The “behavioral sensitization of juvenile mice” value with nerve injury pain (KP 30 mg/kg, PSNL, juvenile mice) is given as “almost complete behavioral recovery”. Besides, the mechanical allodynia entry in the test with nerve injury pain (intrathecal 30 μg, nerve constriction injury) is reported as “reduced mechanical allodynia”. Moreover, the protracted analgesia result in the test with nerve injury pain (systemic KP, d7-14 after nerve constriction) was “almost complete elimination of sensitization”. Further, in the test on ß-catenin (ß-cat), the “differential phosphorylation of ß-cat” value is listed as “not significantly differentially phosphorylated”.
